We go through nine molecules from patent US6335327B1, “Benzoheterocyclic derivatives” (Otsuka Pharmaceuticals Co., Ltd., priority 1994, dated 2002).

The term melting point denotes the temperature of the solid-liquid transition. `COc1cc(NCc2ccccc2C)ccc1C(=O)N1CCCC(CC(=O)N2CCN(C)CC2)c2cc(Cl)ccc21` (stereo not drawn) [Example 142, 7-chloro-5-[(4-methyl-1-piperazinyl)carbonylmethyl]-1-[2-methoxy-4-(2-methylbenzylamino)benzoyl]-2,3,4,5-tetrahydro-1H-benzazepine] displayed a melting point of 153 to 154.5 °C.

For the molecule `O=C(Nc1ccc(C(=O)N2CCCCc3ccccc32)c(Cl)c1)OCc1ccncc1` [Example 725, 1-{4-[(4-pyridyl)methoxycarbonylamino]-2-chlorobenzoyl}-2,3,4,5-tetrahydro-1H-benzazepine], the melting point was 181 to 184 °C.

The molecule `O=C(O)CC1CCCN(C(=O)c2ccc(NC(=O)COc3ccccc3)cc2)c2ccccc21` (stereo not drawn) [Example 721, 5-carboxymethyl-1-[4-(2-phenoxyacetylamino)benzoyl]-2,3,4,5-tetrahydro-1H-benzazepine] showed a melting point of 102 to 106 °C.

Molecule `COc1cc(C(=O)N2CCCCc3cc(Cl)ccc32)ccc1NC(=O)N(C)C` [Example 146, 7-chloro-1-(3-methoxy-4-dimethylaminocarbonylaminobenzoyl)-2,3,4,5-tetrahydro-1H-benzazepine] came in with a melting point of 230 to 232 °C.

`COc1cc(NCCOc2ccccc2C)ccc1C(=O)N1CCCC(CC(=O)N2CCN(C)CC2)c2cc(Cl)ccc21` (stereo not drawn) [Example 139, 7-chloro-5-[(4-methyl-1-piperazinyl)carbonylmethyl]-1-[2-methoxy-4-[2-(2-methylphenoxy)ethylamino]benzoyl}-2,3,4,5-tetrahydro-1H-benzazepine] returned a melting point of 160 to 161 °C.

Molecule `O=C(Nc1ccc(C(=O)N2CCCCc3ccccc32)c(Cl)c1)OCCOc1ccccc1` [Example 726, 1-[4-(2-phenoxyethoxycarbonylamino)-2-chlorobenzoyl]-2,3,4,5-tetrahydro-1H-benzazepine] registered a melting point of 144 to 146 °C.

The molecule `Cc1cc(NC(=O)CO)ccc1C(=O)N1CCCCc2cc(Cl)ccc21` [Example 722, 7-chloro-1-[2-methyl-4-(2-hydroxyacetylamino)benzoyl]-2,3,4,5-tetrahydro-1H-benzazepine] displayed a melting point of 194 to 195 °C.

`O=C(c1ccc(-c2ccccc2)cc1Cl)N1CCCC(Cc2nnn[nH]2)c2ccccc21` (stereo not drawn) [Example 730, 5-(5-tetrazolyl)methyl-1-(4-phenyl-2-chlorobenzoyl)-2,3,4,5-tetrahydro-1H-benzazepine]: the melting point lay within 191 to 194 °C.

Molecule `CN1CCN(c2ccc(C(=O)N3CCCCc4ccccc43)c(Cl)c2)CC1` [Example 728, 1-[4-(4-methyl-1-piperazinyl)-2-chlorobenzoyl]-2,3,4,5-tetrahydro-1H-benzazepine] yielded a melting point of 138 to 140 °C.
